Laboratory results: the supplement of paper PMC11451515

Tested on: SEM cells
Assay: cell viability relative to DMSO control; higher = less cytotoxic
Details: 48 h
In short: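 Library compounds in DMSO were pin-dosed into 1536-well plates (5 μl) holding NOMO1 or SEM (500 cells/well) or P12-Ichikawa (1000 cells/well) leukemia cells, across an 11-point threefold series of 47 μM to 0.79 nM. Each cell line had been adapted for at least four passages in each medium. CellTiter-Glo One luminescence was read after 48 h at 37°C. Viability is the per-plate percentage relative to DMSO wells, with cell-free wells as background.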

[1] = HPLM + 10% dialyzed FBS, 0.000781 µM
[2] = HPLM + 10% dialyzed FBS, 0.00234 µM
[3] = HPLM + 10% dialyzed FBS, 0.00702 µM
[4] = HPLM + 10% dialyzed FBS, 0.0211 µM
[5] = HPLM + 10% dialyzed FBS, 0.0632 µM
[6] = HPLM + 10% dialyzed FBS, 0.19 µM
[7] = HPLM + 10% dialyzed FBS, 0.569 µM
[8] = HPLM + 10% dialyzed FBS, 1.71 µM
[9] = HPLM + 10% dialyzed FBS, 5.12 µM
[10] = HPLM + 10% dialyzed FBS, 15.4 µM
[11] = HPLM + 10% dialyzed FBS, 46.1 µM
[12] = RPMI 5 mM glucose + 10% FBS, 0.000781 µM
[13] = RPMI 5 mM glucose + 10% FBS, 0.00234 µM
[14] = RPMI 5 mM glucose + 10% FBS, 0.00702 µM
[15] = RPMI 5 mM glucose + 10% FBS, 0.0211 µM
[16] = RPMI 5 mM glucose + 10% FBS, 0.0632 µM
[17] = RPMI 5 mM glucose + 10% FBS, 0.19 µM
[18] = RPMI 5 mM glucose + 10% FBS, 0.569 µM
[19] = RPMI 5 mM glucose + 10% FBS, 1.71 µM
[20] = RPMI 5 mM glucose + 10% FBS, 5.12 µM
[21] = RPMI 5 mM glucose + 10% FBS, 15.4 µM
[22] = RPMI 5 mM glucose + 10% FBS, 46.1 µM
[23] = RPMI 5 mM glucose + 10% dialyzed FBS, 0.000781 µM
[24] = RPMI 5 mM glucose + 10% dialyzed FBS, 0.00234 µM
[25] = RPMI 5 mM glucose + 10% dialyzed FBS, 0.00702 µM
[26] = RPMI 5 mM glucose + 10% dialyzed FBS, 0.0211 µM
[27] = RPMI 5 mM glucose + 10% dialyzed FBS, 0.0632 µM
[28] = RPMI 5 mM glucose + 10% dialyzed FBS, 0.19 µM
[29] = RPMI 5 mM glucose + 10% dialyzed FBS, 0.569 µM
[30] = RPMI 5 mM glucose + 10% dialyzed FBS, 1.71 µM
[31] = RPMI 5 mM glucose + 10% dialyzed FBS, 5.12 µM
[32] = RPMI 5 mM glucose + 10% dialyzed FBS, 15.4 µM
[33] = RPMI 5 mM glucose + 10% dialyzed FBS, 46.1 µM

Row | Compound | cell viability [1] [%] | cell viability [2] [%] | cell viability [3] [%] | cell viability [4] [%] | cell viability [5] [%] | cell viability [6] [%] | cell viability [7] [%] | cell viability [8] [%] | cell viability [9] [%] | cell viability [10] [%] | cell viability [11] [%] | cell viability [12] [%] | cell viability [13] [%] | cell viability [14] [%] | cell viability [15] [%] | cell viability [16] [%] | cell viability [17] [%] | cell viability [18] [%] | cell viability [19] [%] | cell viability [20] [%] | cell viability [21] [%] | cell viability [22] [%] | cell viability [23] [%] | cell viability [24] [%] | cell viability [25] [%] | cell viability [26] [%] | cell viability [27] [%] | cell viability [28] [%] | cell viability [29] [%] | cell viability [30] [%] | cell viability [31] [%] | cell viability [32] [%] | cell viability [33] [%]
1 | COc1cc2nccc(Oc3ccc(NC(=O)NC4CC4)c(Cl)c3)c2cc1C(N)=O | 116 | 117 | 126 | 118 | 108 | 108 | 88.7 | 79.2 | 69.1 | 56.2 | 51.4 | 93.5 | 117 | 105 | 98.4 | 97.1 | 98.8 | 72.2 | 80.4 | 63.2 | 44.2 | 32.1 | 119 | 110 | 122 | 114 | 104 | 90.8 | 81.4 | 75 | 59.3 | 53.7 | 47.9
2 | C/C=C1\C2C=C(C)CC1(N)c1ccc(=O)[nH]c1C2 (stereo unspecified) | 103 | 108 | 120 | 109 | 28.9 | 94.2 | 98 | 106 | 102 | 68.1 | 98.7 | 105 | 113 | 109 | 99.6 | 18.2 | 103 | 106 | 114 | 104 | 88 | 96.4 | 103 | 106 | 114 | 113 | 39.9 | 115 | 114 | 108 | 104 | 85.6 | 98.2
3 | COc1cc2c(cc1OC)CC(=O)N(CCCN(C)C[C@H]1Cc3cc(OC)c(OC)cc31)CC2.Cl | 102 | 96.8 | 116 | 115 | 112 | 125 | 114 | 111 | 112 | 114 | 105 | 99.2 | 105 | 96.3 | 114 | 113 | 107 | 107 | 95.7 | 111 | 92.9 | 93.4 | 93.6 | 112 | 108 | 117 | 104 | 88.3 | 105 | 104 | 103 | 113 | 92
4 | COc1ccc(-n2nc(C(N)=O)c3c2C(=O)N(c2ccc(N4CCCCC4=O)cc2)CC3)cc1 | 99.5 | 116 | 132 | 142 | 120 | 137 | 134 | 130 | 133 | 145 | 128 | 120 | 136 | 117 | 124 | 101 | 120 | 136 | 145 | 136 | 154 | 136 | – | – | – | – | – | – | – | – | – | – | –
5 | O=C(Nc1ccccc1-c1cn2c(CN3CCNCC3)csc2n1)c1cnc2ccccc2n1 | 61.2 | 97.4 | 109 | 98.1 | 81.4 | 81.1 | 90.5 | 67.5 | 72.5 | 48.3 | 1.98 | 71.4 | 107 | 95.2 | 103 | 76 | 84.4 | 94.8 | 67.4 | 54.3 | 59.2 | 2.64 | 56.4 | 93.2 | 84.5 | 86.5 | 65.4 | 80.1 | 79.5 | 52.6 | 53.9 | 37.4 | 2.76
6 | CN(NC(=O)CC(=O)NN(C)C(=S)c1ccccc1)C(=S)c1ccccc1 | 84.1 | 89.7 | 98.9 | 83.7 | 15.8 | 4.39 | 3.48 | 3.79 | 4.13 | 3.69 | 4.7 | 112 | 116 | 117 | 120 | 18.3 | 6.81 | 5.75 | 5.74 | 6.44 | 5.8 | 5.63 | 78.8 | 75.8 | 80.7 | 93.1 | 10.5 | 5.14 | 4.03 | 4.74 | 4.6 | 4.37 | 5.18
7 | Cc1[nH]c2ccccc2c1CCNCc1ccc(/C=C/C(=O)NO)cc1 | 99.1 | 114 | 112 | 114 | 116 | 75.8 | 12.3 | 7.29 | 8.44 | 8.29 | 8.77 | 85.6 | 88.8 | 101 | 94.3 | 92.5 | 74.1 | 12.6 | 5.77 | 7.04 | 7.05 | 7.05 | 89.9 | 106 | 108 | 115 | 112 | 81.6 | 19.5 | 7.59 | 8.77 | 8.45 | 9.84
8 | CC[C@H](C)[N]1C=C(C)C2=C1C=C(C=C2C(=O)NC\C3=C(C)\C=C(\C)NC3=O)C4=CC=C(N=C4)N5CCNCC5 | 106 | 104 | 112 | 117 | 114 | 106 | 112 | 117 | 113 | 113 | 99 | 83.5 | 105 | 108 | 102 | 113 | 108 | 99 | 109 | 96.5 | 95 | 101 | 101 | 120 | 115 | 108 | 110 | 103 | 107 | 100 | 107 | 116 | 104
9 | Cn1cnc2c1c(=O)[nH]c(=O)n2C | 97.5 | 110 | 103 | 106 | 116 | 115 | 112 | 107 | 94.1 | 91 | 5.76 | 92.7 | 85.2 | 106 | 101 | 93.2 | 107 | 93 | 94.3 | 79.6 | 61.8 | 5.77 | 95.3 | 99 | 90.9 | 108 | 111 | 94.3 | 108 | 105 | 96.8 | 79.9 | 6.67
10 | O=C(Nc1cc2cc[nH]c2cn1)c1ccccc1 | 87.7 | 95.6 | 90.4 | 104 | 85.6 | 102 | 109 | 104 | 18.5 | 4.59 | 2.37 | 75.6 | 89.4 | 92.4 | 90.8 | 92.8 | 106 | 104 | 90 | 4.38 | 2.43 | 1 | 85.4 | 95.1 | 98.7 | 98.8 | 96.8 | 102 | 112 | 117 | 6.2 | 5.18 | 2.59
11 | COc1cc(OC)c(/C=C/[S+](=O)([O-])Cc2ccc(OC)c(NCC(=O)[O][Na])c2)c(OC)c1 | 123 | 105 | 125 | 125 | 118 | 75.9 | 29.5 | 28.2 | 27 | 21.9 | 13.4 | 109 | 107 | 115 | 112 | 111 | 66.3 | 20 | 17.8 | 15.2 | 9.59 | 7.67 | 121 | 122 | 122 | 120 | 121 | 24.1 | 24.3 | 18.8 | 10.1 | 7.92 | 8.13
12 | N[C@H](CSC(c1ccccc1)(c1ccccc1)c1ccccc1)C(=O)O | 105 | 99.3 | 113 | 99.4 | 117 | 97 | 102 | 94 | 69.4 | 54.9 | 14.7 | 44.8 | 74.6 | 75.2 | 68.2 | 71.1 | 60.9 | 69.8 | 52.3 | 47.2 | 18.7 | 2.79 | 100 | 105 | 122 | 86.5 | 106 | 95.6 | 94 | 82.1 | 60.8 | 40.1 | 12.8
13 | CCn1c(-c2nonc2N)nc2cnc(Oc3cccc(NC(=O)c4ccc(OCCN5CCOCC5)cc4)c3)cc21 | 93.1 | 106 | 102 | 98.7 | 111 | 114 | 113 | 111 | 102 | 82.2 | 70.3 | 102 | 102 | 108 | 119 | 122 | 100 | 102 | 111 | 93.4 | 71.9 | 54.5 | 124 | 111 | 105 | 113 | 108 | 102 | 92.2 | 116 | 106 | 86.6 | 59.7
14 | CN(C)C1=CC=C(C=C1)C(C2=CC=C(C=C2)N(C)C)=C/3\C=C/C(/C=C3)=[N+](C)C | 101 | 98.3 | 113 | 98.1 | 116 | 9.97 | 4.77 | 4.38 | 4.51 | 1.71 | 1.2 | – | – | – | – | – | – | – | – | – | – | – | 104 | 113 | 100 | 85.9 | 76.1 | 8.49 | 4.28 | 2.86 | 4.04 | 1.22 | 0.974
15 | CNC1CCC(N(Cc2cccc(-c3ccncc3)c2)C(=O)c2sc3c(F)ccc(F)c3c2Cl)CC1 (stereo unspecified) | 80.2 | 102 | 106 | 117 | 103 | 101 | 102 | 113 | 93.3 | 85.3 | 53.2 | 97.5 | 101 | 120 | 105 | 109 | 95.9 | 98 | 110 | 99.9 | 92.3 | 73.3 | 93.7 | 99.3 | 113 | 107 | 104 | 74.7 | 101 | 91.9 | 90.3 | 85.9 | 69.2
16 | Cc1ccc([S+](=O)([O-])N[C@@H](Cc2ccccc2)C(=O)CCl)cc1 | 91 | 58.6 | 93.2 | 93.3 | 93 | 105 | 96.4 | 109 | 103 | 85.5 | 25.3 | 87.4 | 53.1 | 94 | 97 | 95.8 | 114 | 95.6 | 108 | 104 | 87 | 22.1 | 80.5 | 49.8 | 100 | 104 | 88.6 | 95.4 | 93.6 | 107 | 100 | 94.3 | 23.4
